Literature values in article PMC5974752, “Bax/Tubulin/Epithelial-Mesenchymal Pathways Determine the Efficacy of Silybin Analog HM015k in Colorectal Cancer Cell Growth and Metastasis” (Frontiers in Pharmacology, 2018).

Tests used:
[1] = set-up: method as in Dixit et al., 2007; Zhu et al., 2013; Amawi et al., 2017b; details: ref Dixit et al., 2007; Zhu et al., 2013; Amawi et al., 2017b; cited from earlier work
[2] = test system: xenograft model in mice using SW480 cells; set-up: method as in Kaur et al., 2010; details: i.p. 100 or 200 mg/kg; ref Kaur et al., 2010; cited from earlier work
[3] = test system: transgenic mice with prostate adenocarcinomas; set-up: method as in Singh et al., 2008; details: 0.5 and 1% (w/w); ref Singh et al., 2008; cited from earlier work
[4] = test system: CRC lines HCT116 and HT29; set-up: method as in Agarwal et al., 2003; details: ref Agarwal et al., 2003, cited from earlier work
[5] = test system: Wnt/β-catenin signaling in PC-3, DU-145, MDAMB-231 and T-47D cells; set-up: method as in Lu W. et al., 2012; details: 100–200 μM; ref Lu W. et al., 2012; cited from earlier work
[6] = test system: PC3 and PC3MM2 cells; set-up: method as in Deep et al., 2011; details: 90 μM; ref Deep et al., 2011; cited from earlier work
[7] = test system: ARCaP(M) cells; set-up: method as in Wu et al., 2009; details: 100 and 200 μM; ref Wu et al., 2009; cited from earlier work
[8] = test system: EMT—driven resistance; set-up: method as in Cufí et al., 2013; details: 100 mg/kg; ref Cufí et al., 2013; cited from earlier work
[9] = test system: PC3 and PC3MM2 cells; set-up: method as in Deep et al., 2011; details: 30 and 90 μM; ref Deep et al., 2011; cited from earlier work
[10] = test system: SW480 cells with a mutant APC gene; set-up: method as in Kaur et al., 2010; details: 50–200 μM; ref Kaur et al., 2010; cited from earlier work

COc1cc(C2Oc3cc([C@H]4Oc5cc(O)cc(O)c5C(=O)[C@@H]4O)ccc3OC2CO)ccc1O (some centres unmarked) [silybin]
bioavailability [1]: poor bioavailability | effects in SW480 xenograft [2]: produced similar effects | E-cadherin, vimentin and MMP-2 expression [3]: significantly upregulate E-cadherin and decrease the expression of the EMT markers, vimentin and MMP-2 | concentration that inhibits proliferation ([4]; HCT116 and HT29): 50 to 200 µM | cell cycle arrest and apoptosis [4]: induces both G1 and G2 cell cycle arrest and induces apoptosis | Wnt/β-catenin signaling [5]: significantly decreased | E-cadherin and nuclear β-catenin levels [6]: significant upregulation in E-cadherin and downregulation in nuclear β-catenin levels | invasiveness [7]: inhibits the invasiveness | EMT-driven resistance [8]: significantly decreased | migratory and invasive capacities [9]: inhibits the migratory and invasive capacities | nuclear β-catenin, c-Myc expression and apoptosis [10]: significantly inhibited the expression of nuclear β-catenin, c-Myc and induced apoptosis
